# Assay results reported in ChEMBL document CHEMBL1131315, “Synthesis and anticonvulsant activity of 2(3H)-benzoxazolone and 2(3H)-benzothiazolone derivatives” (J Med Chem, 1998).
# Active and inactive are the calls of the source. No cut-off for these calls is given here.
# Assays:
# Mus musculus [1] = test: Time of peak effect in mice following i.p. administration.; type: functional
# Mus musculus [2] = test: Anticonvulsant activity in Maximal electroshock seizure test at 100 mg/kg i.p. in mice.; type: functional, organism-based; set-up: dose 100 mg/kg
# Mus musculus [3] = test: The compound was tested for anticonvulsant activity in Maximal electroshock seizure test (MES) for 4 hr in mice(ip); active at 100 mg/kg; type: functional, organism-based; set-up: dose 100 mg/kg
# Mus musculus [4] = test: The compound was tested to inhibit 50% of induced maximal electroshock seizure in mice on ip administration; type: functional
# Mus musculus [5] = test: Inhibition of s.c. pentylenetetrazole induced seizure in mice following i.p. administration.; type: functional
# Mus musculus [6] = test: (§1) The compound was determined for the dose (mg/kg) by rotarod test at the time of peak neurotoxic effect in mice on ip administration.; type: functional
# Mus musculus [7] = test: Anticonvulsant activity in subcutaneous pentylenetetrazole seizure test for 30 min in mice; No activity/toxicity at 300 mg/kg.; type: functional, organism-based; set-up: dose 300 mg/kg
# Mus musculus [8] = test: The anticonvulsant activity in subcutaneous pentylenetetrazole seizure test (sc Met) for 4 hr in mice; no activity or no toxicity at 300 mg/kg; type: functional, organism-based; set-up: dose 300 mg/kg
# Sigma 2 receptor = test: Affinity on sigma 2 receptor using [3H]- DTG as radioligand
# [9] = biological target: Sigma non-opioid intracellular receptor 1 (Homo sapiens) (UniProt Q99720); test: Ratio between the Ki(nM)values of sigma-2 and sigma-1; type: functional
# Sequence of Sigma non-opioid intracellular receptor 1 (Homo sapiens) (Q99720 whole entry): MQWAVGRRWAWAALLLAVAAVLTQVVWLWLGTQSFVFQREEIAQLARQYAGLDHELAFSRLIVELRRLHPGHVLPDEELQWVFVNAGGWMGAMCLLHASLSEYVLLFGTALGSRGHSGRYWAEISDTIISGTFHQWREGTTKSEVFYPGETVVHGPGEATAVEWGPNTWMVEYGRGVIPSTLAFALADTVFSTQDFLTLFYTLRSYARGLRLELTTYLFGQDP
# [10] = The compound was tested for neurologic toxicity (rotarod) test for 30 min in mice; active at 300 mg/kg; type: organism-based; set-up: dose 300 mg/kg; details: mouse, in vivo, 0.5 h
# [11] = The compound was tested for time of peak effect (TPE) in hours for its toxicity in mice on ip administration.; type: organism-based; details: mouse, in vivo
# [12] = The compound was tested for neurologic toxicity (rotarod) test for 4 hours in mice; no activity or no toxicity at 300 mg/kg; type: organism-based; set-up: dose 300 mg/kg; details: mouse, in vivo
# Mus musculus [13] = test: The compound was tested for anticonvulsant activity in Maximal electroshock seizure test for 30 min in mice(ip); active at 30 mg/kg; type: functional, organism-based; set-up: dose 30 mg/kg
# Mus musculus [14] = test: The compound was tested for anticonvulsant activity in Maximal electroshock seizure test (MES) for 4 hr in mice(ip); no activity or toxicity at 300 mg/kg; type: functional, organism-based; set-up: dose 300 mg/kg
# [15] = The compound was tested for neurologic toxicity (rotarod) test for 30 min in mice; active at 30 mg/kg; type: organism-based; set-up: dose 30 mg/kg; details: mouse, in vivo, 0.5 h
# Mus musculus [16] = test: The compound was tested to inhibit 50% of induced maximal electroshock seizure in mice on ip administration.; type: functional
# [17] = The compound was tested for neurologic toxicity (rotarod) test for 30 min in mice; active at 100 mg/kg; type: organism-based; set-up: dose 100 mg/kg; details: mouse, in vivo, 0.5 h
# [18] = as §1; type: ADME, organism-based; details: mouse, in vivo
# Rattus norvegicus = test: The compound was tested for the effective oral dose to inhibit 50% of the anticonvulsant in rats.; type: functional
# Mus musculus [19] = test: The compound was tested for anticonvulsant activity in subcutaneous pentylenetetrazole seizure test (sc Met) for 30 min in mice; active at 300 mg/kg; type: functional, organism-based; set-up: dose 300 mg/kg
# [20] = The compound was tested for neurologic toxicity (rotarod) test for 30 min in mice; no activity or no toxicity at 300 mg/kg; type: organism-based; set-up: dose 300 mg/kg; details: mouse, in vivo, 0.5 h
# Mus musculus [21] = test: The compound was tested for anticonvulsant activity in Maximal electroshock seizure test (MES) for 4 hr in mice(ip); active at 300 mg/kg; type: functional, organism-based; set-up: dose 300 mg/kg
# [22] = The compound was tested for neurologic toxicity (rotarod) test for 4 hours in mice; active at 300 mg/kg; type: organism-based; set-up: dose 300 mg/kg; details: mouse, in vivo
# Mus musculus [23] = test: The compound was tested to inhibit 50% of induced subcutaneous pentylenetetrazole seizure in mice on ip administration; type: functional
# Mus musculus [24] = test: The compound was determined for the dose (mg/kg) by rotarod test at the time of peak neurotoxic effect in mice on ip administration; type: functional
# Mus musculus [25] = test: The compound was tested for anticonvulsant activity in subcutaneous pentylenetetrazole seizure test (sc Met) for 30 min in mice; active at 100 mg/kg; type: functional, organism-based; set-up: dose 100 mg/kg
Structure (SMILES),Activity (Mus musculus [1]),MES (Mus musculus [2]),ED50 (Mus musculus [5]),scMet (Mus musculus [7]),scMet (Mus musculus [8]),Ki (Sigma 2 receptor),Ratio [9],Toxicity [11],Rotarod toxicity [12],MES (Mus musculus [14]),Rotarod toxicity [17],further results
O=c1oc2cc(Cc3ccccc3)ccc2n1CCN1CCOCC1,1 h,active at 100 mg/kg,> 225 mg/kg,No activity or no toxicity at 300 mg/kg,No activity or no toxicity at 300 mg/kg,515 nM,7,1 h,active at 300 mg/kg,–,–,MES (Mus musculus [3]): active at 100 mg/kg; ED50 (Mus musculus [4]): 87 mg/kg; TD50 (Mus musculus [6]): 194 mg/kg; Rotarod toxicity [10]: active at 300 mg/kg
CCC(=O)c1ccc2c(c1)sc(=O)n2CCCN1CCCCC1,–,–,–,No activity or no toxicity at 300 mg/kg,No activity or no toxicity at 300 mg/kg,–,–,–,active at 30 mg/kg,active at 30 mg/kg,–,MES (Mus musculus [13]): active at 30 mg/kg; Rotarod toxicity [15]: active at 30 mg/kg
CCCCC(=O)c1ccc2c(c1)sc(=O)n2CCN(C)C,0.25 h,–,> 70 mg/kg,No activity or no toxicity at 300 mg/kg,No activity or no toxicity at 300 mg/kg,4610 nM,7,0.25 h,active at 100 mg/kg,active at 30 mg/kg,active at 100 mg/kg,MES (Mus musculus [13]): active at 30 mg/kg; ED50 (Mus musculus [16]): 27.3 mg/kg; TD50 [18]: 61.5 mg/kg
NC(=O)N1c2ccccc2C=Cc2ccccc21 [CARBAMAZEPINE],–,–,> 100 mg/kg,–,–,–,–,–,–,–,–,ED50 (Mus musculus [16]): 8.8 mg/kg; ED50 (Rattus norvegicus): 8.5 mg/kg
Cn1c(=O)oc2cc(C(=O)c3ccccc3)ccc21,–,No activity or toxicity at 300 mg/kg,–,–,active at 300 mg/kg,–,–,–,No activity or no toxicity at 300 mg/kg,No activity or toxicity at 300 mg/kg,–,scMet (Mus musculus [19]): active at 300 mg/kg; Rotarod toxicity [20]: No activity or no toxicity at 300 mg/kg
CN(C)CCn1c(=O)oc2cc(C(=O)c3ccccc3)ccc21,0.25 h,active at 300 mg/kg,> 120 mg/kg,No activity or no toxicity at 300 mg/kg,No activity or no toxicity at 300 mg/kg,> 10000 nM,> 27,0.25 h,–,–,–,MES (Mus musculus [21]): active at 300 mg/kg; ED50 (Mus musculus [16]): 84.4 mg/kg; Rotarod toxicity [20]: active at 300 mg/kg; TD50 [18]: 99 mg/kg; Rotarod toxicity [22]: active at 300 mg/kg
CCC1(c2ccccc2)C(=O)NC(=O)NC1=O [PHENOBARBITAL],–,–,–,–,–,–,–,–,–,–,–,ED50 (Mus musculus [4]): 21.8 mg/kg; ED50 (Mus musculus [23]): 13.2 mg/kg; TD50 (Mus musculus [24]): 69 mg/kg
CCC(=O)c1ccc2c(c1)oc(=O)n2CCN1CCCCC1,0.25 h,No activity or toxicity at 300 mg/kg,> 100 mg/kg,No activity or no toxicity at 300 mg/kg,No activity or no toxicity at 300 mg/kg,900 nM,13,0.25 h,active at 100 mg/kg,No activity or toxicity at 300 mg/kg,active at 100 mg/kg,ED50 (Mus musculus [4]): 61 mg/kg; TD50 [18]: 72.9 mg/kg
CCC(=O)c1ccc2nc(O)sc2c1,–,No activity or toxicity at 300 mg/kg,–,No activity or no toxicity at 300 mg/kg,No activity or no toxicity at 300 mg/kg,–,–,–,No activity or no toxicity at 300 mg/kg,No activity or toxicity at 300 mg/kg,–,Rotarod toxicity [20]: No activity or no toxicity at 300 mg/kg
CCCCC(=O)c1ccc2c(c1)sc(=O)n2CCN1CCOCC1,–,active at 300 mg/kg,–,No activity or no toxicity at 300 mg/kg,No activity or no toxicity at 300 mg/kg,–,–,–,–,–,active at 100 mg/kg,MES (Mus musculus [21]): active at 300 mg/kg; Rotarod toxicity [22]: active at 100 mg/kg
CCC(=O)c1ccc2c(c1)oc(=O)n2C,–,No activity or toxicity at 300 mg/kg,–,–,active at 100 mg/kg,–,–,–,active at 100 mg/kg,No activity or toxicity at 300 mg/kg,active at 100 mg/kg,scMet (Mus musculus [25]): active at 100 mg/kg
